Data reported in article PMC6973281 (2019).

Legend:
[1] = test system: 22AG (DNA, G4) AGGGTTAGGGTTAGGGTTAGGG; test: spectrophotometric titration; conditions: K+ 73 mM; K-phosphate buffer pH 7.0, 5 % v/v DMSO, 20 °C; 5 μM compound; isotherm could not be fitted
[2] = test system: 22AG (DNA, G4) AGGGTTAGGGTTAGGGTTAGGG; test: spectrophotometric titration, independent-site fit; conditions: K+ 73 mM; K-phosphate buffer pH 7.0, 5 % v/v DMSO, 20 °C; 5 μM compound; unit not given

binding [1]	K 22AG [2]	SMILES
weak		CCOC(=O)c1csc(/N=N/c2nc(C(=O)OCC)c(NCCCN(C)C)s2)n1
	2.4×10^4	CCOC(=O)c1nc(/N=N/c2nc(C(=O)OCC)c(NCCCN(C)C)s2)sc1NCCCN(C)C
